Like-named read-outs stand apart in the source and are kept apart here.
Columns and labels:
HER2 = HER2 (Homo sapiens, UniProt P04626); assay: in vitro kinase assay (enzyme assay); format: biochemical; details: human recombinant enzyme; read-out: IC50 (Mean ± SD)
Description: (§1) To investigate the inhibitory effect of Compound (1) on HER2 enzyme activity, the mean±standard deviation (SD) of half-maximal inhibitory concentration (IC50) values of Compound (1) against human recombinant enzymes of HER2 and its mutants were determined by in vitro kinase assays (Table 1).

HER2 V777L = HER2 V777L (Homo sapiens, UniProt P04626, V777L); assay: in vitro kinase assay (enzyme assay); format: biochemical; details: human recombinant enzyme; read-out: IC50 (Mean ± SD)
Sequence of HER2 V777L (P04626 23-1255 V777L): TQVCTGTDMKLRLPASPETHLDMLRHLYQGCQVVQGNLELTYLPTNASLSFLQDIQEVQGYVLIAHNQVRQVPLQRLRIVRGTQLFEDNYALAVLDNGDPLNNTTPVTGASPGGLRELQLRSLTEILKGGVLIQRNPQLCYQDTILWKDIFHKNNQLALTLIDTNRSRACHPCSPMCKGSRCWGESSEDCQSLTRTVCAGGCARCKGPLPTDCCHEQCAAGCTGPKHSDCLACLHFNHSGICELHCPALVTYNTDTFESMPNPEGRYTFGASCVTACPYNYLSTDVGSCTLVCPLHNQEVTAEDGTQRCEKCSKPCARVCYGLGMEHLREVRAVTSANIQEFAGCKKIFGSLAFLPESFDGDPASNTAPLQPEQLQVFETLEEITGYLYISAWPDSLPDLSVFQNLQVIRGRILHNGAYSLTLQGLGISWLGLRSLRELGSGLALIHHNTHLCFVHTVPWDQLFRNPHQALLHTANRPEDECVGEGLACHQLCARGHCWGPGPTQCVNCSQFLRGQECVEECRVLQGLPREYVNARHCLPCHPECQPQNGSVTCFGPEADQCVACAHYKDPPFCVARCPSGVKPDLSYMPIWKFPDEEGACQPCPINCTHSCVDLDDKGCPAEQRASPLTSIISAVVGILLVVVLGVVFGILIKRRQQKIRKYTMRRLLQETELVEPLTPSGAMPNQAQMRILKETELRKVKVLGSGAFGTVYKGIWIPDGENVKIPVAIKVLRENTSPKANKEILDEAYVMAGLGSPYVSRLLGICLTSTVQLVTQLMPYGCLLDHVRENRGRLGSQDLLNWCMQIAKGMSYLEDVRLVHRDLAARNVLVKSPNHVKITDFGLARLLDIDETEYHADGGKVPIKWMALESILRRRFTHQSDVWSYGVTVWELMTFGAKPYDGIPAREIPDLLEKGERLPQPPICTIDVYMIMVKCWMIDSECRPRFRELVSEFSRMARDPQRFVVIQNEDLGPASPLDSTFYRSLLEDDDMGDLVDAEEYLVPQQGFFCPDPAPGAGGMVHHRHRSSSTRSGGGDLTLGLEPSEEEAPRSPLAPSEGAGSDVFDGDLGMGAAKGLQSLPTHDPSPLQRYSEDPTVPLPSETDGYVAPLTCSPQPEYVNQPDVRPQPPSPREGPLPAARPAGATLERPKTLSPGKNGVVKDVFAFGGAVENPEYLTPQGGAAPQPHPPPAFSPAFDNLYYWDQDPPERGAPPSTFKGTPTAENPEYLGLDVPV
Description: as §1

[1] = tested on: NCI-H1975 EGFR D770_N771insSVD cells; assay: growth inhibitory effect in human cancer cell lines (GI50); format: cell-based; details: lung cancer, EGFR exon 20 insertion
[2] = tested on: NCI-N87 xenografts relapsed from T-DM1; details: for T/C: Step II Day 22, vs T-DM1 group; for Number of Death / TV (mean ± SE): Step II Day 22
Description: Male nude mice (BALB/cAJ1-mu/mu) were implanted with NCI-N87 human gastric carcinoma (HER2 overexpressing); 1.0×10^7 cells in 100 μL of PBS were implanted subcutaneously per mouse.
PO; or treated with an oral suspension of Compound (1) once per day at a dosage of 25 mg/kg/day, PO. The tumor volumes (TV, mm^3) and body weights of the mice were recorded.

[3] = tested on: NCI-N87 tumor fragment #6, clone 3; assay: refractory T-DM1 monoclonal cell line model, comparison to DS-8201a; format: in vivo, male mice; details: for antitumor effect (tumor volume): 21 days
Description: The obtained cell line was implanted into BALB/cAJcl-mu/nu male mice (8.0×10^6 cells in 100 μL of PBS/mouse, subcutaneous) for the efficacy test.
The tumor volumes (TV, mm) and body weights of the mice were recorded.

[4] = brain binding, brain homogenate, equilibrium dialysis; format: in vitro ADME, nude mouse
Description: Brain binding of Compound (1) in nude mice. Brain binding of Compound (1) at 0.005, 0.01, 0.05, 0.1, and 0.5 μmol/L using nude mouse brain homogenate was evaluated by equilibrium dialysis method. The brain binding at […] was not calculated due to the limit of quantification by LC-MS/MS, but at 0.05, 0.1, and 0.5 μmol/L was 99.6±0.0%, 99.5±0.0%, and 99.5±0.0%, respectively.

P-gp = tested on: T1, P-gp; assay: substrate susceptibility on human P-gp, bidirectional transcellular transport, P-gp/LLC-PK1 cells; format: in vitro ADME; details: human, LLC-PK1, with zosuquidar 10 μmol/L, read-out: net flux ratio
T1 construct: expressed in transfected cells; host or cells: LLC-PK1 (porcine kidney) cells expressing human P-gp; mock/LLC-PK1 as control
Description: (§2) Substrate susceptibility of Compound (1) on human P-gp. Time-dependence of the bidirectional transcellular transport of 1 μmol/L and 10 μmol/L Compound (1) across human P-gp/Lilly Laboratories Cell-Porcine Kidney 1 (LLC-PK1) cells and mock/LLC-PK1 cells was analyzed. Net flux ratios of some samples incubated with 1 μmol/L Compound (1) for 2 or 3 hours was not calculable as concentrations of these samples were below the lower limit of quantification. […] The net flux ratios of samples incubated with 10 μmol/L Compound (1) for 2, 3, and 4 hours were 1.4±0.4 1.7±0.3, and 1.5±0.2, respectively. The net flux ratios samples incubated with 10 μmol/L Compound (1) with 10 μmol/L zosuquidar for 2, 3, and 4 hours were 1.2±0.3, 1.2±0.1, and 1.1±0.1, respectively.

human P-gp = target: T2, human P-gp (Homo sapiens, UniProt P08183); assay: as above; format: in vitro ADME
T2 construct: expressed in transfected cells; host or cells: LLC-PK1 (porcine kidney) cells expressing human P-gp; mock/LLC-PK1 as control
T2 sequence (P08183 whole entry): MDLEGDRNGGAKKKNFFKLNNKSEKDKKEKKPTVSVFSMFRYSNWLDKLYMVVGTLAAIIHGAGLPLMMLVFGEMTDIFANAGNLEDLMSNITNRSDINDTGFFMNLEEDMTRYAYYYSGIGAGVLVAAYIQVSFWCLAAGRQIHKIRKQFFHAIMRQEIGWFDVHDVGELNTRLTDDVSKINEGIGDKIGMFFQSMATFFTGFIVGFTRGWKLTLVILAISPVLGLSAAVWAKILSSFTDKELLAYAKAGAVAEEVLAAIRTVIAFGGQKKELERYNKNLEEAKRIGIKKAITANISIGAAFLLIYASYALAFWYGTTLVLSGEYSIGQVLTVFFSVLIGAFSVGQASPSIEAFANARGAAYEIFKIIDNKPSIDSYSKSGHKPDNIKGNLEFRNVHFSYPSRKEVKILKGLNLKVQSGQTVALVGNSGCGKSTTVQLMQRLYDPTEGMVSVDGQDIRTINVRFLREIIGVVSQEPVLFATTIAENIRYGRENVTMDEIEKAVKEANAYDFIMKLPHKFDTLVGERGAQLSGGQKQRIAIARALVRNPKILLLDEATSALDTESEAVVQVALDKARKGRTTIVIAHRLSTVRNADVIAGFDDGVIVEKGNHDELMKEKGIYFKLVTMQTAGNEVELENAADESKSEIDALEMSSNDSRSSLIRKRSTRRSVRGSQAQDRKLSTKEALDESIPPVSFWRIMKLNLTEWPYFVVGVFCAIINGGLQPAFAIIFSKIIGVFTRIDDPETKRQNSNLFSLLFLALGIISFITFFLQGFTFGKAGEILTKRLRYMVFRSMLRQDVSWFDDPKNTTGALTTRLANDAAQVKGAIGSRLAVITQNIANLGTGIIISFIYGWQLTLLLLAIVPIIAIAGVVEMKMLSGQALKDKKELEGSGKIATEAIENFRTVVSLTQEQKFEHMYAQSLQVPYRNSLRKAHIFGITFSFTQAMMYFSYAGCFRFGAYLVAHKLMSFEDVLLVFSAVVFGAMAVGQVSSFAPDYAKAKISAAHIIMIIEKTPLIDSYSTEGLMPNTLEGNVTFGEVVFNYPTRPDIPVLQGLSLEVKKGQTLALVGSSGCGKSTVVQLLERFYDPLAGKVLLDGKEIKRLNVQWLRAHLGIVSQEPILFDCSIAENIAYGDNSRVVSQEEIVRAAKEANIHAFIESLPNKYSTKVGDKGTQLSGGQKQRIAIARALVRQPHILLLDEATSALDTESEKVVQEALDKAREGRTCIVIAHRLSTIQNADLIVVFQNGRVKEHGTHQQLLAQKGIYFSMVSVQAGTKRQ
Description: as §2

[5] = tested on: refractory T-DM1 NCI-N87 tumor fragment #6; assay: refractory T-DM1 tumor fragment model, comparison to lapatinib and tucatinib; format: in vivo, male nude mice (BALB/cAJcl-nu/nu); details: for antitumor effect (tumor volume): 21 days
Description: Cancer Sci. 2020 June; 111(6):2123-2131. The NCI-N87 tumor fragment #6 obtained from the above procedure was then passaged two times into male nude mice (BALB/cAJcl-nu/nu) subcutaneously before the efficacy test of Compound (1).
The tumor volumes (TV, mnm^3) and body weights of the mice were recorded.

SK-BR-3 cells = assay: feedback activation of HER3, downstream targets and apoptosis markers in SK-BR-3 cells; format: cell-based, human; details: 48 hours
Text: The effect of Compound (1) on feedback activation of HER3, its downstream targets (ERK and AKT), and apoptosis markers (BIM and cleaved PARP) in SK-BR-3 cells was investigated. In addition, the same information for lapatinib and tucatinib (a reversible inhibitor of HER2) was obtained.

NCI-H1781 cells = assay: growth inhibitory effect in human cancer cell lines (GI50); format: cell-based; details: lung cancer, HER2 DelG776insVC
Text: (§3) Among the 9 cell lines tested, HER2 gene amplification has previously been reported in BT-474 cells (breast cancer) and NCI-N87 cells (gastric cancer), while HER2 gene mutation (DelG776insVC) has been reported in NCI-H1781 cells (lung cancer).

NCI-N87 cells = assay: as above; format: cell-based; details: gastric cancer, HER2 gene amplification
Text: as §3

BT-474 cells = assay: as above; format: cell-based; details: breast cancer, HER2 gene amplification
Text: as §3

Sequence of HER2 (P04626 23-1255): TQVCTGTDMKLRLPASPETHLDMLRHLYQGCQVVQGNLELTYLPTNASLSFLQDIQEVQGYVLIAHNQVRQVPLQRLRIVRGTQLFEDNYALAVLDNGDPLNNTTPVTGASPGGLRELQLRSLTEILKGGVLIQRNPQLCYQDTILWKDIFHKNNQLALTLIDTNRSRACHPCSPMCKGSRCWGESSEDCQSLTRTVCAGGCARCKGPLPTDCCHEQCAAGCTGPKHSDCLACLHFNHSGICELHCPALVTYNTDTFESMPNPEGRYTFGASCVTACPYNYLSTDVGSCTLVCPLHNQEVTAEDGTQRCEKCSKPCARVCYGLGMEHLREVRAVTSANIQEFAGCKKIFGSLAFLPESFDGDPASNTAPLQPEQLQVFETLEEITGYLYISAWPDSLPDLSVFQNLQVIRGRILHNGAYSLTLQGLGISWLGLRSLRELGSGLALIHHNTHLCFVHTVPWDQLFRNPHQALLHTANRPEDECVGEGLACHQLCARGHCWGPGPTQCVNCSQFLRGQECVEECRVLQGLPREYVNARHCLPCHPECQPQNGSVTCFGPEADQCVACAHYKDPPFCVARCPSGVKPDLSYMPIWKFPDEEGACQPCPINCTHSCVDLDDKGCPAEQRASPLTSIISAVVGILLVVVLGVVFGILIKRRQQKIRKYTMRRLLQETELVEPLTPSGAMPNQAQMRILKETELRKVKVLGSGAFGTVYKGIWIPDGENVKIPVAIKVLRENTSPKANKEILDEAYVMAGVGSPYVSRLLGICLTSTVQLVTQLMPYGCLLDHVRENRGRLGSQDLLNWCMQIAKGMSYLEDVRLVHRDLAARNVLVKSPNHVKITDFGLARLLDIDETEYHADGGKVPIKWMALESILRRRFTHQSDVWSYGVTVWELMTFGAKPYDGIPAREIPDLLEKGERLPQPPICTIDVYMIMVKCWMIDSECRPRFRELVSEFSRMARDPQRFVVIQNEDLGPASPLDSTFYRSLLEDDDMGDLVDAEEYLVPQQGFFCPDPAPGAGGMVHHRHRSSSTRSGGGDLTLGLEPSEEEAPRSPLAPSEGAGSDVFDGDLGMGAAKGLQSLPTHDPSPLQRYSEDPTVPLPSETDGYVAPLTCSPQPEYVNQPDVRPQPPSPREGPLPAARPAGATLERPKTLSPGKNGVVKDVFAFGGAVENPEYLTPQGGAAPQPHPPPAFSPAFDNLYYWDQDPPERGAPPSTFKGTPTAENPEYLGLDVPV

## C=CC(=O)N1C[C@H](n2c(C#CC3CC3)c(C(=O)N[C@H](C)c3ccccc3)c3c(N)ncnc32)C[C@@H]1C [Compound (1), 7-((3R,5S)-1-acryloyl-5-methylpyrrolidin-3-yl)-4-amino-6-(cyclopropylethynyl)-N—((R)-1-phenylethyl)-7H-pyrrolo[2,3-d]pyrimidine-5-carboxamide]
HER2
  IC50: 5.6 ± 0.3 nM
HER2 V777L
  IC50: 2.1 ± 0.8 nM
[1]
  GI50: 8.71 ± 4.56 nM
[2]; 12.5 and 25 mg/kg/day
  body weight loss (tolerance): did not cause severe body weight loss
[2]; 12.5 mg/kg/day po Days 1-21
  T/C: 75.7%
  Number of Death: 0
  TV (mean ± SE): 435.7 mm^3
[2]; 25 mg/kg/day po Days 1-21
  T/C: 62.4%
  Number of Death: 0
  TV (mean ± SE): 353.7 mm^3
[3]; 12.5 mg/kg/day PO once per day
  antitumor effect (tumor volume): arresting tumor growth
[3]; 20 mg/kg/day PO once per day
  antitumor effect (tumor volume): inducing tumor regression
[3]; 12.5 or 20 mg/kg
  body weight loss: did not cause body weight loss
[4]; 0.05 μmol/L
  brain binding: 99.6±0.0%
[4]; 0.1 μmol/L
  brain binding: 99.5±0.0%
[4]; 0.5 μmol/L
  brain binding: 99.5±0.0%
P-gp; 1 μmol/L Compound (1), 4 hours, with 10 μmol/L zosuquidar
  efflux ratio at 4 h, 1 μmol/L: 1.5 ± 0.6
P-gp; 10 μmol/L Compound (1) with 10 μmol/L zosuquidar, 2 hours
  efflux ratio at 2 h, 10 μmol/L: 1.2 ± 0.3
P-gp; 10 μmol/L Compound (1) with 10 μmol/L zosuquidar, 4 hours
  efflux ratio at 4 h, 10 μmol/L: 1.1 ± 0.1
Human P-gp; 1 μmol/L Compound (1), 4 hours, without zosuquidar
  net flux ratio: 4.7±0.7
Human P-gp; 10 μmol/L Compound (1) with 10 μmol/L zosuquidar, 3 hours
  net flux ratio: 1.2±0.1
Human P-gp; 10 μmol/L Compound (1), 2 hours
  net flux ratio: 1.4±0.4
Human P-gp; 10 μmol/L Compound (1), 3 hours
  net flux ratio: 1.7±0.3
Human P-gp; 10 μmol/L Compound (1), 4 hours
  net flux ratio: 1.5±0.2
Human P-gp; transport saturable by increase of concentration
  substrate susceptibility on human P-gp: substrate of P-gp
[5]; 12.5 mg/kg/day PO once per day
  antitumor effect (tumor volume): arresting tumor growth
[5]; 20 mg/kg/day PO once per day
  antitumor effect (tumor volume): inducing tumor regression
[5]; 12.5 and 20 mg/kg/day PO
  antitumor effect compared to lapatinib (50 mg/kg b.i.d.) or tucatinib (75 mg/kg b.i.d.): superior antitumor effects
[5]; 12.5 or 20 mg/kg
  body weight loss: did not cause body weight loss
SK-BR-3 cells; 10 to 100 nmol/L
  BIM and cleaved PARP: markedly increased
SK-BR-3 cells; concentrations starting as low as 10 nmol/L
  phosphorylation of HER2, HER3, AKT, and ERK: sustained inhibition
NCI-H1781 cells
  GI50: 5.85 ± 2.83 nM
NCI-N87 cells
  GI50: 0.891 ± 0.312 nM
BT-474 cells
  GI50: 2.05 ± 0.48 nM
